Experimental findings from ChEMBL document CHEMBL1135025, “Synthesis of iodinated biochemical tools related to the 2-azetidinone class of cholesterol absorption inhibitors” (2002) are described below.

Test [1] relates to Cricetinae gen. sp. In words: Effective dose required to produe activity in cholesterol hamster assay was determined; na means not applicable. Format: functional, organism-based. To be noted: Cricetulus griseus.
Test [2] deals with Cricetinae gen. sp. Nature of the test: In vivo activity in a cholesterol-fed hamster assay was determined at 1 mg/kg/day. In kind it is functional, Cricetulus griseus.
For test [3], the system named is Cricetinae gen. sp. Nature of the test: Effective dose required to produe activity in cholesterol hamster assay was determined. In kind it is functional, Cricetulus griseus.
For test [4], the system named is Cricetinae gen. sp. Nature of the test: In vivo activity in a cholesterol-fed hamster assay was determined at 50 mg/kg/day. Format: functional, Cricetulus griseus.
Test [5] concerns Cricetinae gen. sp. In words: In vivo activity in a cholesterol-fed hamster assay was determined at 10 mg/kg/day. In kind it is functional, Cricetulus griseus.

Each structure is given as a SMILES string. Calls of active or inactive are those of the source. No cut-off for these calls is given here.

A word on the ED50: it is the dose at which the effect has come halfway, by size or by number of responders. Take `O=C1[C@H](CC[C@H](O)c2ccc(I)cc2)[C@@H](c2ccc(O)cc2)N1c1ccc(F)cc1`: the ED50 result in the test on Cricetinae gen. sp. [1] is “inactive”. Moreover, the Reduction in the test on Cricetinae gen. sp. [2] was -54%.

On to `O=C1[C@H](CC[C@H](O)c2ccc(F)cc2)[C@@H](c2ccc(O)cc2)N1c1ccc(I)cc1`, for which the median effective dose (ED50) in the test with Cricetinae gen. sp. [3] amounted to 0.49 mg/kg/day. In addition, in the test with Cricetinae gen. sp. [2], the Reduction is -63%.

As for `COc1ccc([C@@H]2[C@@H](CCCc3ccccc3)C(=O)N2c2ccc(I)cc2)cc1` (racemic), the ED50 entry with Cricetinae gen. sp. [1] was “inactive”. Besides, the Reduction in the test on Cricetinae gen. sp. [4] is -82%.

In the case of `COc1ccc([C@@H]2[C@@H](CCCc3ccc(I)cc3)C(=O)N2c2ccc(OC)cc2)cc1` (racemic), the ED50 result with Cricetinae gen. sp. [1] is “inactive”. Moreover, the Reduction in the test on Cricetinae gen. sp. [4] is given as -56%.

Consider `O=C(O)[C@H]1OC(Oc2ccc([C@@H]3[C@@H](CC[C@H](O)c4ccc(F)cc4)C(=O)N3c3ccc(I)cc3)cc2)C(O)[C@@H](O)[C@@H]1O` (single isomer, unassigned), for which the ED50 entry with Cricetinae gen. sp. [1] is “inactive”. Further, the Reduction in the test with Cricetinae gen. sp. [2] is listed as -54%.

As for `O=C1[C@H](CC[C@H](O)c2ccc(F)cc2)[C@@H](c2ccc(O)cc2)N1c1ccc(F)cc1` [EZETIMIBE], the 50% effective dose (ED50) in the test on Cricetinae gen. sp. [3] was 0.04 mg/kg/day. The Reduction with Cricetinae gen. sp. [2] was -100%.

`COc1ccc([C@@H]2[C@@H](CCCc3ccccc3)C(=O)N2c2ccc(OC)cc2)cc1` [SCH-48461] had an ED50 with Cricetinae gen. sp. [3] of 2.2 mg/kg/day. In addition, the Reduction with Cricetinae gen. sp. [5] is -93%.
